Where two headings read alike, the source gives them in different places.
Key:
[1] = biological target: T1, mouse Pgp (Abcb1a, MDR3) (Mus musculus, UniProt P21447); experiment: biochemical
[2] = biological target: T1, mouse Pgp (Abcb1a, MDR3)
[3] = biological target: T1, mouse Pgp (Abcb1a, MDR3); settings: for KSV of acrylamide quenching of Pgp (slope of Stern-Volmer plot): 1 μM Pgp
[4] = biological target: T1, mouse Pgp (Abcb1a, MDR3); remark: listed apart in the source
[5] = system: Pgp; settings: rats ref 32; cited from earlier work
[6] = biological target: T1, mouse Pgp (Abcb1a, MDR3); experiment: biochemical; remark: listed apart in the source
[7] = system: Pgp; settings: humans ref 32; cited from earlier work
[8] = biological target: T1, mouse Pgp (Abcb1a, MDR3); experiment: in vitro; settings: pH 7.4
[9] = system: human and mouse Pgp; settings: study of CNS drugs ref 96; cited from earlier work
[10] = system: Pgp; settings: cited from earlier work
[11] = biological target: T1, mouse Pgp (Abcb1a, MDR3); remark: listed apart in the source
[12] = system: Pgp; settings: Caco-2 cells, cited from earlier work

T1 sequence (P21447 whole entry): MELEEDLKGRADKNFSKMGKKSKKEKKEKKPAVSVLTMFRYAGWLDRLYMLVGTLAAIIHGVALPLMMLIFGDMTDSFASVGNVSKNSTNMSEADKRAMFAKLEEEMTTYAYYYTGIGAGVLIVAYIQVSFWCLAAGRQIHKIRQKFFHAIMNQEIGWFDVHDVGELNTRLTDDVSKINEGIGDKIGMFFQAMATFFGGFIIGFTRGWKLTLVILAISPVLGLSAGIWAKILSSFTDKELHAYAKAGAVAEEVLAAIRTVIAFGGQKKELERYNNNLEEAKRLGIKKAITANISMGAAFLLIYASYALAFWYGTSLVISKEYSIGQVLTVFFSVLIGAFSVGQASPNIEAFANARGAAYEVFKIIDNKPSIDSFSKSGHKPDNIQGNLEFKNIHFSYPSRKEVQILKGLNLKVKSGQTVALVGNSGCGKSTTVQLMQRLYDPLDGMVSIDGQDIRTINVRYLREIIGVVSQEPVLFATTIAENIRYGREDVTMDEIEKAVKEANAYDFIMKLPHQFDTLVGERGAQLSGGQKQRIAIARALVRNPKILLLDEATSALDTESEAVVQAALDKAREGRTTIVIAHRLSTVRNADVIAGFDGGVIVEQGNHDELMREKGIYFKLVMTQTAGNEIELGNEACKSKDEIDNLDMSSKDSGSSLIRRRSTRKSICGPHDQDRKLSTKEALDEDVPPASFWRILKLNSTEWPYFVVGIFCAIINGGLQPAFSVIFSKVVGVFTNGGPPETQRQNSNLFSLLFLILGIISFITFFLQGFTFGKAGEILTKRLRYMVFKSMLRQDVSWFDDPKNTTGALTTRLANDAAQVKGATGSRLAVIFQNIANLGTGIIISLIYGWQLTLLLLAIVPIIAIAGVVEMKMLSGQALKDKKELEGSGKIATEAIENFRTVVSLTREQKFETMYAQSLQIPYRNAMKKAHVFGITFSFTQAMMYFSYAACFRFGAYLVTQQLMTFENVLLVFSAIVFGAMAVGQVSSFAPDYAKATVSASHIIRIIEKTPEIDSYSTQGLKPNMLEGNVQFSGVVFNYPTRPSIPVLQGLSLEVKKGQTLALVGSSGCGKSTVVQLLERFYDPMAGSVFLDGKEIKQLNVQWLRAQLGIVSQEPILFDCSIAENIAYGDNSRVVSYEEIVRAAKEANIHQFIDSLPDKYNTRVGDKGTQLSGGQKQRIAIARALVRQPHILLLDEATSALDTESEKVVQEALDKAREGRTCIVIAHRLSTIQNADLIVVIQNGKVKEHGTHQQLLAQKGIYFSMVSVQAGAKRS

SMILES: C[C@H]1O[C@@H](O[C@H]2[C@@H](O)C[C@H](O[C@H]3[C@@H](O)C[C@H](O[C@H]4CC[C@@]5(C)[C@H](CC[C@@H]6[C@@H]5C[C@@H](O)[C@]5(C)[C@@H](C7=CC(=O)OC7)CC[C@]65O)C4)O[C@@H]3C)O[C@@H]2C)C[C@H](O)[C@@H]1O [digoxin]
- Kd [1]: 32 ± 13.4 µM
- KSV,L (Stern-Volmer constant, low concentration phase) ([2]; in the presence of 500 μM loperamide, biphasic, fit to Eq. 5, dynamic quenching): 4.59 ± 2.10 µM⁻¹
- KSV,H (Stern-Volmer constant, high concentration phase) ([2]; in the presence of 500 μM loperamide, biphasic, fit to Eq. 5, static quenching): 0.0241 ± 0.0108 µM⁻¹

SMILES: CN(C)C(=O)C(CCN1CCC(O)(c2ccc(Cl)cc2)CC1)(c1ccccc1)c1ccccc1 [loperamide]
- Increase of acrylamide-quenching KSV ([3]; 500 μM versus 7.8 μM drug): about 1.4 M^−1
- KSV of acrylamide quenching of Pgp (slope of Stern-Volmer plot) ([3]; in the presence of 7.8 μM drug): 0.851 ± 0.002 M⁻¹
- KSV of acrylamide quenching of Pgp (slope of Stern-Volmer plot) ([3]; in the presence of saturating 500 μM drug): 2.25 ± 0.17 M⁻¹
- Shape of drug-induced ATPase activation kinetics [4]: biphasic
- ATPase activity, apparent maximum ([4]; at 7.8 μM drug): around 800 nmol min^−1 mg^−1
- ATPase activity at saturating drug ([4]; at saturating (500 μM) drug): ~ 400 nmol min^−1 mg^−1
- Levels of loperamide in the presence of cyclosporine A (CsA) [5]: elevated levels
- Ki [6]: 108 ± 27 µM
- Quenching of intrinsic Pgp fluorescence by the drug ([2]; data not shown): did not quench
- Levels of loperamide in the presence of cyclosporine A (CsA) [7]: elevated levels
- Km [8]: 1.6 ± 0.4 µM
- Difference of efflux ratios between human and mouse Pgp [9]: less than 2 fold
- Level in brain, Pgp-knockout mice versus wild-type [10]: > 10 fold
- Average STDD amplification factor ([11]; 1 mM drug, 1 μM Pgp in liposomes): ~ 30
- STDD amplification factor of aromatic protons ([11]; aromatic protons labeled 9–13, 1 mM drug, 1 μM Pgp): ~ 30
- Transport at 100 μM ([12]; 100 μM ref 89): inhibited
- Concentration at which transport was highest ([12]; in vitro ref 89): 5 µM

SMILES: CCC(=O)C(CC(C)N(C)C)(c1ccccc1)c1ccccc1 (stereo not shown) [methadone]
- ATPase activity at saturating drug [4]: around 800 nmol min^−1 mg^−1
- Kd [1]: 72.7 ± 11.7 µM
- Increase of KD at low loperamide concentration [2]: ~ 5 fold
- KSV (Stern-Volmer constant) of drug-induced Pgp fluorescence quenching [2]: 0.0137 ± 0.0022 µM⁻¹
- Average STDD amplification factor [11]: ~ 10
